From PMC8303886, “Polyphenylglyoxamide-Based Amphiphilic Small Molecular Peptidomimetics as Antibacterial Agents with Anti-Biofilm Activity” (International Journal of Molecular Sciences, 2021)
In brackets after ≈: the same amount, converted by molar mass. Several values for one entry are separate records, joined by “and”; a condition that tells them apart may be missing. Equal values may be shown once. Read-outs that look alike come from different tables or passages of the source.

How the values were obtained:
S. aureus (SA38) [1] = assay: Minimum inhibitory concentration (MIC) assay against S. aureus; assay type: cell-based, Staphylococcus aureus; conditions: S. aureus SA38, read-out: MIC S. aureus
S. aureus (SA38) [2] = conditions: previously reported, cited from earlier work
[3] = test system: MRC-5 normal human lung fibroblasts; assay: MTT cytotoxicity assay; assay type: cell-based; conditions: 72 h drug incubation; for IC50: read-out: IC50 against MRC-5 normal human lung fibroblasts
Description: The IC50 values of the tested peptidomimetics were determined from a dose-response curve. […] The therapeutic indices for each tested peptidomimetic against Gram-positive S. aureus and Gram-negative E. coli were calculated by dividing the IC50 value against human cells by the corresponding MIC value (Table 2).
The toxicity of the peptidomimetics against normal human lung fibroblasts MRC-5 cells was measured, using an MTT (3-(4,5-dimethylthiazol-2-yl)-2,5-diphenyltetrazolium bromide) (Sigma Aldrich, St. Louis, MO, USA) colorimetric assay. The cells were cultured in minimal essential medium (MEM, Invitrogen) containing 10% foetal bovine serum (FBS). The cells were maintained at 37 °C in 5% CO2 as an adherent monolayer and was passaged upon reaching confluence by standard cell culture techniques. MRC-5 cells were seeded at 5000 cells/well in 96-well plates to ensure full confluence (quiescence) and left overnight to adhere to the plate wells. The adherent cells were treated with 1–500 μM of compounds by dissolving in DMSO and serially diluting with media. TY-01 was used as the positive control. The final concentration of DMSO was 0.5% (v/v). After the 72 h drug incubation, […] stock MTT solution (5 mg/mL) was added, and the cells were incubated for another 3.5–4 h. The MTT solution containing media was carefully aspirated without displacing the purple crystals from the bottom, and […] acid-isopropanol was added to all wells and mixed slowly by shaking with an orbital shaker to dissolve the dark blue crystals. […] The determination of IC50 values was performed using GraphPad Prism 7 (GraphPad, San Diego, CA, USA). Each experiment was performed in triplicate and was repeated in three independent experiments.

## CCCCCCCCCCCCS(=O)(=O)Nc1ccc(-c2ccc(-c3ccccc3)cc2)cc1C(=O)C(=O)NCCC[N+](C)(C)C.[I-] [Compound 17d, 3-(2-(4-(Dodecylsulfonamido)-[1,1′:4′,1″-terphenyl]-3-yl)-2-oxoacetamido)-N,N,N-trimethylpropan-1-aminium iodide]
S. aureus (SA38) [1]; Staphylococcus aureus
  MIC: 63 µM and 48 µg/mL

## CCCCCCCCCCCCS(=O)(=O)Nc1ccccc1C(=O)C(=O)NCCCN(C)C.Cl [Compound 14a, 3-(2-(2-(Dodecylsulfonamido)phenyl)-2-oxoacetamido)-N,N-dimethylpropan-1-aminium chloride]
S. aureus (SA38) [1]; Staphylococcus aureus
  MIC: 16 µM and 8.3 µg/mL

## CCCCCCCCS(=O)(=O)Nc1ccc(-c2ccccc2)cc1C(=O)C(=O)NCCCN(C)C [Compound 13c]
S. aureus (SA38) [2]
  MIC S. aureus: 16 μM and 8.6 μg/mL

## CCCCCCCCCCCCCCCCS(=O)(=O)Nc1ccc(-c2ccccc2)cc1C(=O)C(=O)NCCC[N+](C)(C)C.[I-] [Compound 18c, 3-(2-(4-(Hexadecylsulfonamido)-[1,1′-biphenyl]-3-yl)-2-oxoacetamido)-N,N,N-trimethylpropan-1-aminium iodide]
S. aureus (SA38) [1]; Staphylococcus aureus
  MIC: 250 µM and 189 µg/mL

## CCCCCCCCS(=O)(=O)Nc1ccc(-c2cccc(-c3ccccc3)c2)cc1C(=O)C(=O)NCCCN(C)C [Compound 21, N-(3-(Dimethylamino)propyl)-2-(4-(octylsulfonamido)-[1,1′:3′,1″-terphenyl]-3-yl)-2-oxoacetamide]
S. aureus (SA38) [1]; Staphylococcus aureus
  MIC: 16 µM and 9.2 µg/mL

## CCCCCCCCS(=O)(=O)Nc1ccc(-c2ccc(-c3ccccc3)cc2)cc1C(=O)C(=O)NCCCN(C)C [Compound 10d, N-(3-(Dimethylamino)propyl)-2-(4-(octylsulfonamido)-[1,1′:4′,1″-terphenyl]-3-yl)-2-oxoacetamide]
S. aureus (SA38) [1]
  MIC: 8 µM
S. aureus (SA38) [1]; Staphylococcus aureus
  MIC: 4.6 µg/mL
[3]
  IC50: 3.48 µM
[3]; Homo sapiens, MRC5, 72 h
  IC50: 2.01 µg/mL

## CCCCCCCCCCCCCCCCS(=O)(=O)Nc1ccc(Br)cc1C(=O)C(=O)NCCCN(C)C.Cl [Compound 15b, 3-(2-(5-Bromo-2-(hexadecylsulfonamido)phenyl)-2-oxoacetamido)-N,N-dimethylpropan-1-aminium chloride]
S. aureus (SA38) [1]
  MIC: 250 µM
S. aureus (SA38) [1]; Staphylococcus aureus
  MIC: 163 µg/mL

## CCCCCCCCS(=O)(=O)Nc1ccccc1C(=O)C(=O)NCCCN(C)C [Compound 13a]
S. aureus (SA38) [2]
  MIC S. aureus: > 250 μM and > 116 μg/mL

## CCCCCCCCCCCCS(=O)(=O)Nc1ccc(-c2ccccc2)cc1C(=O)C(=O)NCCCN(C)C [Compound 11c, N-(3-(Dimethylamino)propyl)-2-(4-(dodecylsulfonamido)-[1,1′-biphenyl]-3-yl)-2-oxoacetamide]
S. aureus (SA38) [1]; Staphylococcus aureus
  MIC: 16 µM and 8.9 µg/mL

## CCCCCCCCS(=O)(=O)Nc1ccc(-c2ccc(-c3ccccc3)cc2)cc1C(=O)C(=O)NCCCN(C)C.Cl [Compound 13d, N,N-Dimethyl-3-(2-(4-(octylsulfonamido)-[1,1′:4′,1″-terphenyl]-3-yl)-2-oxoacetamido)propan-1-aminium chloride]
S. aureus (SA38) [1]; Staphylococcus aureus
  MIC: 16 µM and 9.8 µg/mL
[3]
  IC50 against MRC-5 normal human lung fibroblasts: 2.31 µg/mL
  IC50: 3.76 µM
[3]; Homo sapiens, MRC5, 72 h
  IC50: ~4 µM and ~2 µg/mL

## CCCCCCCCCCCCS(=O)(=O)Nc1ccc(-c2ccccc2)cc1C(=O)C(=O)NCCCN(C)C.Cl [Compound 14c, 3-(2-(4-(Dodecylsulfonamido)-[1,1′-biphenyl]-3-yl)-2-oxoacetamido)-N,N-dimethylpropan-1-aminium chloride]
S. aureus (SA38) [1]
  MIC: 16 µM
S. aureus (SA38) [1]; Staphylococcus aureus
  MIC: 9.5 µg/mL

## CCCCCCCCCCCCS(=O)(=O)Nc1ccc(-c2ccc(-c3ccccc3)cc2)cc1C(=O)C(=O)NCCCN(C)C.Cl [Compound 14d, 3-(2-(4-(Dodecylsulfonamido)-[1,1′:4′,1″-terphenyl]-3-yl)-2-oxoacetamido)-N,N-dimethylpropan-1-aminium chloride]
S. aureus (SA38) [1]
  MIC: 125 µM
S. aureus (SA38) [1]; Staphylococcus aureus
  MIC: 84 µg/mL

## CCCCCCCCS(=O)(=O)Nc1ccccc1C(=O)C(=O)NCCCNC(=N)N [Compound 33a]
S. aureus (SA38) [2]
  MIC S. aureus: 47 μM and 22 μg/mL

## CCCCCCCCS(=O)(=O)Nc1ccc(-c2ccccc2)cc1C(=O)C(=O)NCCCN(C)C [Compound 10c]
S. aureus (SA38) [2]
  MIC S. aureus: 24 μM and 12 μg/mL

## CCCCCCCCCCCCCCCCS(=O)(=O)Nc1ccc(-c2ccccc2)cc1C(=O)C(=O)NCCCN(C)C.Cl [Compound 15c, 3-(2-(4-(Hexadecylsulfonamido)-[1,1′-biphenyl]-3-yl)-2-oxoacetamido)-N,N-dimethylpropan-1-aminium chloride]
S. aureus (SA38) [1]
  MIC: > 250 µM
S. aureus (SA38) [1]; Staphylococcus aureus
  MIC: > 163 µg/mL

## CCCCCCCCCCCCS(=O)(=O)Nc1ccc(Br)cc1C(=O)C(=O)NCCCN(C)C.Cl [Compound 14b, 3-(2-(5-Bromo-2-(dodecylsulfonamido)phenyl)-2-oxoacetamido)-N,N-dimethylpropan-1-aminium chloride]
S. aureus (SA38) [1]; Staphylococcus aureus
  MIC: 16 µM and 9.6 µg/mL

## CCCCCCCCCCCCS(=O)(=O)Nc1ccc(-c2ccc(-c3ccccc3)cc2)cc1C(=O)C(=O)NCCCN(C)C [Compound 11d, N-(3-(Dimethylamino)propyl)-2-(4-(dodecylsulfonamido)-[1,1′:4′,1″-terphenyl]-3-yl)-2-oxoacetamide]
S. aureus (SA38) [1]; Staphylococcus aureus
  MIC: 250 µM and 158 µg/mL

## CCCCCCCCCCCCCCCCS(=O)(=O)Nc1ccc(Br)cc1C(=O)C(=O)NCCCN(C)C [Compound 12b, 2-(5-Bromo-2-(hexadecylsulfonamido)phenyl)-N-(3-(dimethylamino)propyl)-2-oxoacetamide]
S. aureus (SA38) [1]; Staphylococcus aureus
  MIC: 250 µM and 154 µg/mL

## CCCCCCCCCCCCS(=O)(=O)Nc1ccccc1C(=O)C(=O)NCCCN(C)C [Compound 11a, N-(3-(Dimethylamino)propyl)-2-(2-(dodecylsulfonamido)phenyl)-2-oxoacetamide]
S. aureus (SA38) [1]
  MIC: 32 µM
S. aureus (SA38) [1]; Staphylococcus aureus
  MIC: 15 µg/mL

## CCCCCCCCS(=O)(=O)Nc1ccc(Br)cc1C(=O)C(=O)NCCCN(C)C [Compound 13b]
S. aureus (SA38) [2]
  MIC S. aureus: 63 μM and 34 μg/mL

## CCCCCCCCCCCCCCCCS(=O)(=O)Nc1ccccc1C(=O)C(=O)NCCCNC(=N)N.Cl [Compound 35a, N-(3-Guanidinopropyl)-2-(2-(hexadecylsulfonamido)phenyl)-2-oxoacetamide hydrochloride]
S. aureus (SA38) [1]; Staphylococcus aureus
  MIC: 250 µM and 147 µg/mL

## CCCCCCCCS(=O)(=O)Nc1ccc(Br)cc1C(=O)C(=O)NCCCN(C)C [Compound 10b]
S. aureus (SA38) [2]
  MIC S. aureus: 94 μM and 47 μg/mL

## CCCCCCCCS(=O)(=O)Nc1ccc(-c2cccc(-c3ccccc3)c2)cc1C(=O)C(=O)NCCCN(C)C.Cl [Compound 22, N,N-Dimethyl-3-(2-(4-(octylsulfonamido)-[1,1′:3′,1″-terphenyl]-3-yl)-2-oxoacetamido)propan-1-aminium chloride]
S. aureus (SA38) [1]
  MIC: 16 µM
S. aureus (SA38) [1]; Staphylococcus aureus
  MIC: 9.8 µg/mL
[3]; Homo sapiens, MRC5, 72 h
  IC50: 3.46 µM and 2.13 µg/mL

## CCCCCCCCS(=O)(=O)Nc1ccc(-c2cccc(-c3ccccc3)c2)cc1C(=O)C(=O)NCCC[N+](C)(C)C.[I-] [Compound 23, N,N,N-Trimethyl-3-(2-(4-(octylsulfonamido)-[1,1′:3′,1″-terphenyl]-3-yl)-2-oxoacetamido)propan-1-aminium iodide]
S. aureus (SA38) [1]; Staphylococcus aureus
  MIC: 8 µM and 5.8 µg/mL
[3]; Homo sapiens, MRC5, 72 h
  IC50: 15.4 µM and 11.1 µg/mL

## CCCCCCCCCCCCS(=O)(=O)Nc1ccc(Br)cc1C(=O)C(=O)NCCCN(C)C [Compound 11b, 2-(5-Bromo-2-(dodecylsulfonamido)phenyl)-N-(3-(dimethylamino)propyl)-2-oxoacetamide]
S. aureus (SA38) [1]
  MIC: 32 µM
S. aureus (SA38) [1]; Staphylococcus aureus
  MIC: 18 µg/mL

## CCCCCCCCS(=O)(=O)Nc1ccc(Br)cc1C(=O)C(=O)NCCCNC(=N)N [Compound 33b]
S. aureus (SA38) [2]; listed as 1, 33b
  MIC S. aureus: 12 μM and 6.7 μg/mL
S. aureus (SA38) [2]; listed as 1
  MIC S. aureus: 12 µM (≈ 6.22 µg/mL)

## CCCCCCCCCCCCCCCCS(=O)(=O)Nc1ccc(Br)cc1C(=O)C(=O)NCCC[N+](C)(C)C.[I-] [Compound 18b, 3-(2-(5-Bromo-2-(hexadecylsulfonamido)phenyl)-2-oxoacetamido)-N,N,N-trimethylpropan-1-aminium iodide]
S. aureus (SA38) [1]; Staphylococcus aureus
  MIC: 125 µM and 95 µg/mL

## CCCCCCCCCCCCCCCCS(=O)(=O)Nc1ccccc1C(=O)C(=O)NCCCN(C)C [Compound 12a, N-(3-(Dimethylamino)propyl)-2-(2-(hexadecylsulfonamido)phenyl)-2-oxoacetamide]
S. aureus (SA38) [1]; Staphylococcus aureus
  MIC: 63 µM and 34 µg/mL

## CCCCCCCCS(=O)(=O)Nc1ccccc1C(=O)C(=O)NCCCN(C)C [Compound 10a]
S. aureus (SA38) [2]
  MIC S. aureus: 250 μM and 106 μg/mL

## CCCCCCCCCCCCS(=O)(=O)Nc1ccccc1C(=O)C(=O)NCCC[N+](C)(C)C.[I-] [Compound 17a, 3-(2-(2-(Dodecylsulfonamido)phenyl)-2-oxoacetamido)-N,N,N-trimethylpropan-1-aminium iodide]
S. aureus (SA38) [1]; Staphylococcus aureus
  MIC: 16 µM and 10 µg/mL

## CCCCCCCCCCCCCCCCS(=O)(=O)Nc1ccccc1C(=O)C(=O)NCCCN(C)C.Cl [Compound 15a, 3-(2-(2-(Hexadecylsulfonamido)phenyl)-2-oxoacetamido)-N,N-dimethylpropan-1-aminium chloride]
S. aureus (SA38) [1]
  MIC: 63 µM
S. aureus (SA38) [1]; Staphylococcus aureus
  MIC: 36 µg/mL
